Reference: US20210254056A1, “IDENTIFICATION AND TARGETED MODULATION OF GENE SIGNALING NETWORKS” (CAMP4 THERAPEUTICS CORPORATION, priority 2017, published 2021)

Test system: hepatocytes
Test: RNA-seq of hepatocytes treated with Phase III failure compounds
Details: hepatocytes
Experimental: RNA-seq was performed to determine the effects of the compounds on hepatocytes.
Significance was determined by the criteria of FPKM≥0.5, a log 2(fold-change)≥1, and a […].

CCC(CC)[C@H](NC(C)=O)[C@@H]1[C@H](O)[C@@H](C(=O)O)C[C@H]1NC(=N)N.O.O.O [peramivir (trihydrate), peramivir]
RNA-seq results: BCKDK expression (gene BCKDK): −0.14 | RNA-seq results: BCO1 expression (gene BCO1): −0.07 | RNA-seq results: BCR expression (gene BCR): −0.02 | RNA-seq results: BLNK expression (gene BLNK): −0.02 | RNA-seq results: BLOC1S3 expression (gene BLOC1S3): 0.01 | RNA-seq results: BMPR1A expression (gene BMPR1A): −0.14 | RNA-seq results: BRAF expression (gene BRAF): −0.13 | RNA-seq results: BSCL2 expression (gene BSCL2): −1.57 | RNA-seq results: BTD expression (gene BTD): −0.14 | RNA-seq results: C4A expression (gene C4A): 0.79 | RNA-seq results: C9 expression (gene C9): −0.57 | RNA-seq results: C10orf10 expression (gene C10orf10): 0.08 | RNA-seq results: C10orf11 expression (gene C10orf11): −0.18 | RNA-seq results: C15orf41 expression (gene C15orf41): −0.25 | RNA-seq results: CA2 expression (gene CA2): −0.12 | RNA-seq results: CA5A expression (gene CA5A): 0.03 | RNA-seq results: CA12 expression (gene CA12): −0.29 | RNA-seq results: CAV1 expression (gene CAV1): −0.36 | RNA-seq results: CCND1 expression (gene CCND1): −0.01 | RNA-seq results: CD46 expression (gene CD46): −0.29 | RNA-seq results: CD81 expression (gene CD81): −0.08 | RNA-seq results: CD320 expression (gene CD320): −0.01 | RNA-seq results: CDAN1 expression (gene CDAN1): 0.23 | RNA-seq results: CDH1 expression (gene CDH1): 0.05 | RNA-seq results: CEP19 expression (gene CEP19): −0.09 | RNA-seq results: CEP83 expression (gene CEP83): −0.20 | RNA-seq results: CEP164 expression (gene CEP164): 0.39 | RNA-seq results: CEP290 expression (gene CEP290): −0.30 | RNA-seq results: CFB expression (gene CFB): −0.13 | RNA-seq results: CFHR2 expression (gene CFHR2): −0.38 | RNA-seq results: CHRM3 expression (gene CHRM3): −0.12 | RNA-seq results: CIDEC expression (gene CIDEC): −0.45 | RNA-seq results, CLDN1 expression (gene CLDN1): −0.36 | RNA-seq results, COG1 expression (gene COG1): −0.10 | RNA-seq results, COG5 expression (gene COG5): −0.36 | RNA-seq results: COG5 expression (gene COG5): −0.22 | RNA-seq results, COG6 expression (gene COG6): −0.54 | RNA-seq results: COG6 expression (gene COG6): −0.08 | RNA-seq results, COL1A1 expression (gene COL1A1): 0.33 | RNA-seq results: COL1A1 expression (gene COL1A1): 0.09 | RNA-seq results, COX6A1 expression (gene COX6A1): 0.39 | RNA-seq results: COX6A1 expression (gene COX6A1): −0.01 | RNA-seq results, CP expression (gene CP): −0.09 | RNA-seq results: CP expression (gene CP): −0.27 | RNA-seq results, CPS1 expression (gene CPS1): 0.01 | RNA-seq results: CPS1 expression (gene CPS1): −0.63 | RNA-seq results, CPT1A expression (gene CPT1A): −0.10 | RNA-seq results: CPT1A expression (gene CPT1A): 0.13 | RNA-seq results, CPT2 expression (gene CPT2): −0.19 | RNA-seq results: CPT2 expression (gene CPT2): 0.05 | RNA-seq results, CROT expression (gene CROT): −0.25 | RNA-seq results: CROT expression (gene CROT): −0.4 | RNA-seq results, CSPP1 expression (gene CSPP1): −0.06 | RNA-seq results: CSPP1 expression (gene CSPP1): −0.05 | RNA-seq results, CTC1 expression (gene CTC1): 0.10 | RNA-seq results: CTC1 expression (gene CTC1): 0.2 | RNA-seq results, CTDSP2 expression (gene CTDSP2): 0.00 | RNA-seq results: CTDSP2 expression (gene CTDSP2): −0.07 | RNA-seq results, CTH expression (gene CTH): 0.06 | RNA-seq results: CTH expression (gene CTH): 0.6 | RNA-seq results, CTNS expression (gene CTNS): −0.25 | RNA-seq results: CTNS expression (gene CTNS): 0.65 | RNA-seq results, CTSF expression (gene CTSF): 0.21 | RNA-seq results: CTSF expression (gene CTSF): 0.3 | RNA-seq results, CTSK expression (gene CTSK): 0.28 | RNA-seq results: CTSK expression (gene CTSK): 0.04 | RNA-seq results, CYB5A expression (gene CYB5A): 0.01 | RNA-seq results: CYB5A expression (gene CYB5A): 0.34 | RNA-seq results, CYB5R3 expression (gene CYB5R3): 0.00 | RNA-seq results: CYB5R3 expression (gene CYB5R3): 0.13 | RNA-seq results, CYP2B6 expression (gene CYP2B6): 0.07 | RNA-seq results: CYP2B6 expression (gene CYP2B6): 0.12 | RNA-seq results, CYP2C19 expression (gene CYP2C19): 0.25 | RNA-seq results: CYP2C19 expression (gene CYP2C19): −0.31 | RNA-seq results, CYP2D6 expression (gene CYP2D6): 0.24 | RNA-seq results: CYP2D6 expression (gene CYP2D6): 0.22 | RNA-seq results, CYP3A4 expression (gene CYP3A4): −0.53 | RNA-seq results: CYP3A4 expression (gene CYP3A4): 0.77 | RNA-seq results, CYP7B1 expression (gene CYP7B1): −0.16 | RNA-seq results: CYP7B1 expression (gene CYP7B1): −0.34 | RNA-seq results, CYP27A1 expression (gene CYP27A1): −0.21 | RNA-seq results: CYP27A1 expression (gene CYP27A1): 0.28 | RNA-seq results, CYP39A1 expression (gene CYP39A1): −0.20 | RNA-seq results: CYP39A1 expression (gene CYP39A1): −0.11 | RNA-seq results, DAO expression (gene DAO): 0.00 | RNA-seq results: DAO expression (gene DAO): 0.13 | RNA-seq results, DBT expression (gene DBT): −0.24 | RNA-seq results: DBT expression (gene DBT): −0.32 | RNA-seq results, DCDC2 expression (gene DCDC2): −0.04 | RNA-seq results: DCDC2 expression (gene DCDC2): −0.6 | RNA-seq results, DCXR expression (gene DCXR): −0.20 | RNA-seq results: DCXR expression (gene DCXR): 0.16 | RNA-seq results, DDC expression (gene DDC): −0.41 | RNA-seq results: DDC expression (gene DDC): −0.25 | RNA-seq results, DDO expression (gene DDO): 0.12 | RNA-seq results: DDO expression (gene DDO): 0.12 | RNA-seq results, DENR expression (gene DENR): −0.36 | RNA-seq results: DENR expression (gene DENR): −0.13 | RNA-seq results, DHCR7 expression (gene DHCR7): 0.04 | RNA-seq results: DHCR7 expression (gene DHCR7): 0.32 | RNA-seq results, DHCR24 expression (gene DHCR24): −0.16 | RNA-seq results: DHCR24 expression (gene DHCR24): −0.14 | RNA-seq results, DHODH expression (gene DHODH): 0.27 | RNA-seq results: DHODH expression (gene DHODH): 0.22 | RNA-seq results, DIS3L2 expression (gene DIS3L2): −0.14 | RNA-seq results: DIS3L2 expression (gene DIS3L2): −0.14 | RNA-seq results, DKC1 expression (gene DKC1): −0.11 | RNA-seq results: DKC1 expression (gene DKC1): −0.05 | RNA-seq results, DLAT expression (gene DLAT): −0.15 | RNA-seq results: DLAT expression (gene DLAT): −0.21 | RNA-seq results, DLD expression (gene DLD): −0.35 | RNA-seq results: DLD expression (gene DLD): −0.3 | RNA-seq results, DMGDH expression (gene DMGDH): −0.11 | RNA-seq results: DMGDH expression (gene DMGDH): −0.15 | RNA-seq results, DNAH5 expression (gene DNAH5): −0.05 | RNA-seq results: DNAH5 expression (gene DNAH5): −0.1 | RNA-seq results, DNM1L expression (gene DNM1L): −0.28 | RNA-seq results: DNM1L expression (gene DNM1L): −0.12 | RNA-seq results, DOLK expression (gene DOLK): 0.09
